Converted amounts (≈) assume the structure as drawn. Where two headings read alike, the source gives them in different places.
Columns and labels:
[1] = Solubility test of curcumin in oils, surfactants, milk, BSA and casein; type: physicochemical; conditions: thermodynamic from solid
Description: The solubility of curcumin in a number of oils such as citronella oil, castor oil, ethyl oleate, and palm rose oil, coconut oil, CAPRYOL™ 90 and a number of surfactants such as TWEEN® 80, CREMOPHOR® EL, PEG 200 and TRANSCUTOL® HP were determined in order to find out the appropriate oils and surfactants as compositions of SNEDDS. Solubility was also determined in milk, BSA and casein.
An excess amount of curcumin was added to 5 ml of oil or surfactant solutions. The resultant mixture was shaken reciprocally at 37° C. for 72 h, followed by centrifugation at 12000 rpm for 10 min. The supernatant was filtered through a membrane filter (0.45 μm) to remove the remaining insoluble curcumin. After the appropriate dilution with methanol, the drug concentration in the filtrate was quantified by HPLC.

[2] = rat intestine in vitro, cited from earlier work
[3] = rats, oral administration of 400 mg of curcumins, cited from earlier work

solubility at 72 h ([1]; 37 °C, plasma or biological fluid, in Casein, read-out: Solubility of Curcumin in milk, BSA and Casein): 14 µg/mL (≈ 0.038 mM)
solubility at 72 h ([1]; 37 °C, plasma or biological fluid, in Milk, read-out: Solubility of Curcumin in milk, BSA and Casein): 23800 µg/mL (≈ 64.5 mM)
solubility at 72 h ([1]; Almond oil, oil or lipid, in Almond, 37° C., 72 h, read-out: Solubility of Curcumin in oils, Sol): 1250 µg/mL (≈ 3.39 mM)
solubility at 72 h ([1]; Castor oil, oil or lipid, in Castor, 37° C., 72 h, read-out: Solubility of Curcumin in oils, Sol): 4420 µg/mL (≈ 12 mM)
solubility at 72 h ([1]; Citronella oil, oil or lipid, in Citronella, 37° C., 72 h, read-out: Solubility of Curcumin in oils, Sol): 13200 µg/mL (≈ 35.8 mM)
solubility at 72 h ([1]; Lavender oil, oil or lipid, in Lavender, 37° C., 72 h, read-out: Solubility of Curcumin in oils, Sol): 3440 µg/mL (≈ 9.35 mM)
solubility at 72 h ([1]; Palm Rose oil, oil or lipid, in Palm Rose, 37° C., 72 h, read-out: Solubility of Curcumin in oils, Sol): 6030 µg/mL (≈ 16.4 mM)
solubility at 72 h ([1]; aqueous with cosolvent or surfactant or cyclodextrin, in TWEEN® 60 (100% conc), 37° C., 72 h, read-out: Solubility of Curcumin in surfactants, Sol): 34 µg/mL (≈ 0.0923 mM)
solubility at 72 h ([1]; aqueous with cosolvent or surfactant or cyclodextrin, in TWEEN® 80 (100% conc), 37° C., 72 h, read-out: Solubility of Curcumin in surfactants, Sol): 484 µg/mL (≈ 1.31 mM)
solubility at 72 h ([1]; bovine, 37 °C, plasma or biological fluid, in BSA, read-out: Solubility of Curcumin in milk, BSA and Casein): 24 µg/mL (≈ 0.0651 mM)
solubility at 72 h ([1]; coconut oil, oil or lipid, in Cocconut Oil, 37° C., 72 h, read-out: Solubility of Curcumin in oils, Sol): 1680 µg/mL (≈ 4.57 mM)
solubility at 72 h ([1]; oil or lipid, in Arachis Oil, 37° C., 72 h, read-out: Solubility of Curcumin in oils, Sol): 160 µg/mL (≈ 0.434 mM)
solubility at 72 h ([1]; oil or lipid, in CAPRYOL™ 90, 37° C., 72 h, read-out: Solubility of Curcumin in oils, Sol): 7580 µg/mL (≈ 20.6 mM)
solubility at 72 h ([1]; oil or lipid, in Emu oil, 37° C., 72 h, read-out: Solubility of Curcumin in oils, Sol): 1580 µg/mL (≈ 4.3 mM)
solubility at 72 h ([1]; oil or lipid, in Ethyl Oleate, 37° C., 72 h, read-out: Solubility of Curcumin in oils, Sol): 589 µg/mL (≈ 1.6 mM)
solubility at 72 h ([1]; oil or lipid, in Glyc Mono ol, 37° C., 72 h, read-out: Solubility of Curcumin in oils, Sol): 154 µg/mL (≈ 0.418 mM)
solubility at 72 h ([1]; oil or lipid, in IPM, 37° C., 72 h, read-out: Solubility of Curcumin in oils, Sol): 1130 µg/mL (≈ 3.06 mM)
solubility at 72 h ([1]; oil or lipid, in Labrafilm F 1944, 37° C., 72 h, read-out: Solubility of Curcumin in oils, Sol): 2560 µg/mL (≈ 6.95 mM)
solubility at 72 h ([1]; oil or lipid, in Labrafilm F2125, 37° C., 72 h, read-out: Solubility of Curcumin in oils, Sol): 3590 µg/mL (≈ 9.75 mM)
solubility at 72 h ([1]; oil or lipid, in Lauroglycol, 37° C., 72 h, read-out: Solubility of Curcumin in oils, Sol): 2610 µg/mL (≈ 7.09 mM)
solubility at 72 h ([1]; oil or lipid, in Light Paraffin, 37° C., 72 h, read-out: Solubility of Curcumin in oils, Sol): 7 µg/mL (≈ 0.019 mM)
solubility at 72 h ([1]; oil or lipid, in Linseed Oil, 37° C., 72 h, read-out: Solubility of Curcumin in oils, Sol): 277 µg/mL (≈ 0.752 mM)
solubility at 72 h ([1]; olive oil, oil or lipid, in Oilve, 37° C., 72 h, read-out: Solubility of Curcumin in oils, Sol): 501 µg/mL (≈ 1.36 mM)
solubility at 72 h ([1]; organic solvent or mixture, in CREMOPHOR® EL (100% conc), 37° C., 72 h, read-out: Solubility of Curcumin in surfactants, Sol): 36600 µg/mL (≈ 99.4 mM)
solubility at 72 h ([1]; organic solvent or mixture, in CREMOPHOR® RH (100% conc), 37° C., 72 h, read-out: Solubility of Curcumin in surfactants, Sol): 38700 µg/mL (≈ 105 mM)
solubility at 72 h ([1]; organic solvent or mixture, in LABRASOL® (100% conc), 37° C., 72 h, read-out: Solubility of Curcumin in surfactants, Sol): 846 µg/mL (≈ 2.3 mM)
solubility at 72 h ([1]; organic solvent or mixture, in PEG 200 (100% conc), 37° C., 72 h, read-out: Solubility of Curcumin in surfactants, Sol): 1040 µg/mL (≈ 2.84 mM)
solubility at 72 h ([1]; organic solvent or mixture, in PEG 400 (100% conc), 37° C., 72 h, read-out: Solubility of Curcumin in surfactants, Sol): 512 µg/mL (≈ 1.39 mM)
solubility at 72 h ([1]; organic solvent or mixture, in PEG 600 (100% conc), 37° C., 72 h, read-out: Solubility of Curcumin in surfactants, Sol): 123 µg/mL (≈ 0.334 mM)
solubility at 72 h ([1]; organic solvent or mixture, in TRANSCUTOL® HP (100% conc), 37° C., 72 h, read-out: Solubility of Curcumin in surfactants, Sol): 96400 µg/mL (≈ 262 mM)
Compound: COc1cc(/C=C/C(=O)/C=C(O)/C=C/c2ccc(O)c(OC)c2)ccc1O [Curcumin, curcumin]
absorption of curcumin ([2]; present as micelles): 56%
absorption of curcumin ([2]; present in a free form): 47%
curcumin in portal blood ([3]; 15 minute to 24 hour after administration): trace amount
curcumin in heart blood [3]: no curcumin was found
